Some results are limits rather than exact numbers.

The term IC50 denotes the concentration that gives 50% inhibition. By inhibition is commonly meant the percentage by which the read-out fell short of the control.

Sequence of USP1/UAF1 (O94782 whole entry): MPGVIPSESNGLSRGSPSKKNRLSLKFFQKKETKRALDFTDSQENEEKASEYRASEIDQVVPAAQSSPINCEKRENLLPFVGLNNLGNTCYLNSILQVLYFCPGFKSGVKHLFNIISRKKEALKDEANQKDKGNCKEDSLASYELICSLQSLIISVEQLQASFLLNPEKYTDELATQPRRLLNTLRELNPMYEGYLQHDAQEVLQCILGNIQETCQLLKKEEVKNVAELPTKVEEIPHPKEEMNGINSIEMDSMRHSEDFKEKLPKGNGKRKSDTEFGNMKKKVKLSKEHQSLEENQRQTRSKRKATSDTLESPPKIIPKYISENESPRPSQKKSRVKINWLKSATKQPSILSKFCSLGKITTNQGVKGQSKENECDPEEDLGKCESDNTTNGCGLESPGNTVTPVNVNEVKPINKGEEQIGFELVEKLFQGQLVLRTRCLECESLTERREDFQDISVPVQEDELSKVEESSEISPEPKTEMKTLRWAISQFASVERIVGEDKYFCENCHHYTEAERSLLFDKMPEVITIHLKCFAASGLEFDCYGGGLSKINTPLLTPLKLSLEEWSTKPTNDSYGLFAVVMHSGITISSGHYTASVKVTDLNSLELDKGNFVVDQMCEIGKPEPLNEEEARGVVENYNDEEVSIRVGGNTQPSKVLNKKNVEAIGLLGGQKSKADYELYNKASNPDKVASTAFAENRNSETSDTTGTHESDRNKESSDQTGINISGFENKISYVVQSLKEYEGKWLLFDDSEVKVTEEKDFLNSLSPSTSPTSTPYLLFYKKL
Sequence of USP1/UAF1 (Q8TAF3 whole entry partner): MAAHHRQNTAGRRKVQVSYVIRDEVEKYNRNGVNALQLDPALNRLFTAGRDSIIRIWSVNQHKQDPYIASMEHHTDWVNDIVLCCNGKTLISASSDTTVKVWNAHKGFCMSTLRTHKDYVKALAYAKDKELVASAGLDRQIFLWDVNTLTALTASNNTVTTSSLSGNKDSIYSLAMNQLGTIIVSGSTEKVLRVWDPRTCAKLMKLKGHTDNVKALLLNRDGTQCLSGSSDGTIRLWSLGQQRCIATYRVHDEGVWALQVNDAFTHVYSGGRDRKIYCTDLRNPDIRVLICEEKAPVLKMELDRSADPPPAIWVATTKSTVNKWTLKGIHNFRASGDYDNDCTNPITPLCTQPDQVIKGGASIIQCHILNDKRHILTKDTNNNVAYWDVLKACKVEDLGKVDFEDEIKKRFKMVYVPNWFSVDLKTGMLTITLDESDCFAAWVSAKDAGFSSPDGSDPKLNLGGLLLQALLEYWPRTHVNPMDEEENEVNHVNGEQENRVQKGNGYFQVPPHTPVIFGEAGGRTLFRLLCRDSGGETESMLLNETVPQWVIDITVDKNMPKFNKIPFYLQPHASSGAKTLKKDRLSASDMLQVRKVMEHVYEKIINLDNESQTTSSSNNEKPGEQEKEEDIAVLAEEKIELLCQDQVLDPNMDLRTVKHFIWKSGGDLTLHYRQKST

In the first assay the target is USP1/UAF1 (Homo sapiens, UniProt O94782). The experiment in a line: USP1/UAF 1 assay (ubiquitin-rhodamine110 fluorometric deubiquitinase assay). The conditions noted are these: 1 nM USP1/UAF1, 150 nM Ub-Rho; read-out: Biochemical assay IC50. The class given is biochemical. The procedure: Test-1: USP1/UAF 1 Assay:
Deubiquitinase activity of USP1/UAF1 was monitored in a fluorometric assay using ubiquitin-rhodamine110 as substrate. Briefly, enzymatic reactions were conducted in an assay buffer composed of 50 mM HEPES, pH 7.8, 0.5 mM EDTA, 100 mM NaCl, 1 mM TCEP, 0.1 mg/mL BSA, and 0.01% Tween-20 that contained 1 nM USP1/UAF1. Compounds were tested at desired concentrations. The plates were incubated for 15 min to attain equilibrium, and then the enzymatic reaction was initiated by dispensing 150 nM Ub-Rho solution. Fluorescence measurement was performed in a high throughput CCD imager, where kinetic measurements of rhodamine fluorescence were acquired using a 480 nm excitation/540 nm emission filter set. The change in fluorescence intensity over a 5-minute reaction period (typically associated with less than 10% substrate conversion) was normalized against no-inhibitor and no-enzyme controls and the resulting percent inhibition data were fitted to a sigmoidal dose response using a four-parameter Hill equation. Data was be analysed and percent inhibition and/or IC50 for each test compound is calculated accordingly.
Consider `CC(C)c1ccccc1-c1cc2nccn2c(NCc2ccc(-c3nc(C(F)(F)F)cn3C)cc2)n1` [Example 7, 7-(2-isopropylphenyl)-N-(4-(1-methyl-4-(trifluoromethyl)-1H-imidazol-2-yl)benzyl)imidazo[1,2-c]pyrimidin-5-amine], for which the IC50 was in the range of 100 to 1000 nM.

On to `CC(C)c1ccccc1-c1nc(NCc2ccc(-c3nc(C(F)(F)F)cn3C)cc2)c2[nH]cnc2n1` [Example 15, 2-(2-isopropylphenyl)-N-(4-(1-methyl-4-(trifluoromethyl)-1H-imidazo-2-yl)benzyl)-7H-purin-6-amine], for which the IC50 is less than 50 nM.

Turning to `CC(C)c1ccccc1-c1nc2c(c(NCc3ccc(-c4nc(C(F)(F)F)cn4C)cc3)c1C#N)CCC2` [Example 20, 2-(2-isopropylphenyl)-4-((4-(1-methyl-4-(trifluoromethyl)-1H-imidazol-2-yl)benzyl)amino)-6,7-dihydro-5H-cyclopenta[b]pyridine-3-carbonitrile], the IC50 was in the range of 100 to 1000 nM.

The assay is the same for the next values; noted with them: @1 μM.
In the case of `CC(C)c1ccccc1-c1nc(NCc2ccc(-c3nc(C(F)(F)F)cn3C)cc2)c2ncn(C3CCCCO3)c2n1` (centres unmarked) [Example 18, 2-(2-isopropylphenyl)-N-(4-(1-methyl-4-(trifluoromethyl)-1H-imidazol-2-yl)benzyl)-9-(tetrahydro-2H-pyran-2-yl)-9H-purin-6-amine], the “Biochemical assay % inhibition @1 μM” value is recorded as “B+++”.

The same assay, now with this note: read-out: Biochemical assay % inhibition @1 μM.
As for `Cn1cc(C(F)(F)F)nc1-c1ccc(CNc2nc(Cl)nc3c2ncn3C2CCCCO2)cc1` (centres unmarked) [Example 17, 2-chloro-N-(4-(1-methyl-4-(trifluoromethyl)-1H-imidazol-2-yl)benzyl)-9-(tetrahydro-2H-pyran-2-yl)-9H-purin-6-amine], the inhibition at 1 µM was greater than 75%.

As to `Cc1cccc(-c2nc(NCc3ccc(-c4nc(C(F)(F)F)cn4C)cc3)c3[nH]cnc3n2)c1Cl` [Example 38, 2-(2-chloro-3-methylphenyl)-N-(4-(1-methyl-4-(trifluoromethyl)-1H-imidazol-2-yl)benzyl)-7H-purin-6-amine], the inhibition at 1 µM lay in the range of 50 to 75%.

For `Cn1cc(C(F)(F)F)nc1-c1ccc(CNc2nc(-c3cc(Cl)cc(Cl)c3)nc3nc[nH]c23)cc1` [Example 39, 2-(3,5-dichlorophenyl)-N-(4-(1-methyl-4-(trifluoromethyl)-1H-imidazol-2-yl)benzyl)-7H-purin-6-amine], the inhibition at 1 µM was in the range of 50 to 75%.

With `Cn1cc(C(F)(F)F)nc1-c1ccc(CNc2nc(-c3ccc(F)cc3F)nc3nc[nH]c23)cc1` [Example 40, 2-(2,4-difluorophenyl)-N-(4-(1-methyl-4-(trifluoromethyl)-1H-imidazol-2-yl)benzyl)-7H-purin-6-amine], the inhibition at 1 µM fell in the range of 50 to 75%.

For `Cn1cc(C(F)(F)F)nc1-c1ccc(CNc2nc(-c3cc(F)cc(F)c3)nc3nc[nH]c23)cc1` [Example 41, 2-(3,5-difluorophenyl)-N-(4-(1-methyl-4-(trifluoromethyl)-1H-imidazol-2-yl)benzyl)-7H-purin-6-amine], the inhibition at 1 µM fell in the range of 50 to 75%.

In the case of `Cn1cc(C(F)(F)F)nc1-c1ccc(CNc2nc(-c3ccc(Cl)cc3Cl)nc3nc[nH]c23)cc1` [Example 42, 2-(2,4-dichlorophenyl)-N-(4-(1-methyl-4-(trifluoromethyl)-1H-imidazol-2-yl)benzyl)-7H-purin-6-amine], the inhibition at 1 µM lay within 50 to 75%.

Turning to `COc1ccc(-c2nc(NCc3ccc(-c4nc(C(F)(F)F)cn4C)cc3)c3[nH]cnc3n2)c(OC)n1` [Example 43, 2-(2,6-dimethoxypyridin-3-yl)-N-(4-(1-methyl-4-(trifluoromethyl)-1H-imidazol-2-yl)benzyl)-7H-purin-6-amine], the inhibition at 1 µM was 50 to 75%.

With `Cn1cc(C(F)(F)F)nc1-c1ccc(CNc2nc(-c3cc(C(F)(F)F)ccc3F)nc3nc[nH]c23)cc1` [Example 44, 2-(2-fluoro-5-(trifluoromethyl)phenyl)-N-(4-(1-methyl-4-(trifluoromethyl)-1H-imidazol-2-yl)benzyl)-7H-purin-6-amine], the inhibition at 1 µM is 50 to 75%.

Take `Cn1cc(C(F)(F)F)nc1-c1ccc(CNc2nc(-c3ccccc3C(F)(F)F)nc3nc[nH]c23)cc1` [Example 45, N-(4-(1-methyl-4-(trifluoromethyl)-1H-imidazol-2-yl)benzyl)-2-(2-(trifluoromethyl)phenyl)-7H-purin-6-amine]: the inhibition at 1 µM was in the range of 50 to 75%.

In the case of `Cn1cc(C(F)(F)F)nc1-c1ccc(CNc2nc(-c3cccc(OC(F)(F)F)c3)nc3nc[nH]c23)cc1` [Example 46, N-(4-(1-methyl-4-(trifluoromethyl)-1H-imidazol-2-yl)benzyl)-2-(3-(trifluoromethoxy)phenyl)-7H-purin-6-amine], the inhibition at 1 µM fell in the range of 50 to 75%.

With `Cn1cc(C(F)(F)F)nc1-c1ccc(CNc2nc(-c3ccc(OC(F)(F)F)cc3)nc3nc[nH]c23)cc1` [Example 47, N-(4-(1-methyl-4-(trifluoromethyl)-1H-imidazol-2-yl)benzyl)-2-(4-(trifluoromethoxy)phenyl)-7H-purin-6-amine], the inhibition at 1 µM was in the range of 50 to 75%.

On to `COc1cccc(-c2nc(NCc3ccc(-c4nc(C(F)(F)F)cn4C)cc3)c3[nH]cnc3n2)c1F` [Example 48, 2-(2-fluoro-3-methoxyphenyl)-N-(4-(1-methyl-4-(trifluoromethyl)-1H-imidazol-2-yl)benzyl)-7H-purin-6-amine], for which the inhibition at 1 µM is 50 to 75%.

For the compound `Cn1cc(C(F)(F)F)nc1-c1ccc(CNc2nc(-c3ccc(F)c(C#N)c3)nc3nc[nH]c23)cc1` [Example 49, 2-fluoro-5-(6-((4-(1-methyl-4-(trifluoromethyl)-1H-imidazol-2-yl)benzyl)amino)-7H-purin-2-yl)benzonitrile], the inhibition at 1 µM lay within 50 to 75%.

With `Cc1cc(C)cc(-c2nc(NCc3ccc(-c4nc(C(F)(F)F)cn4C)cc3)c3[nH]cnc3n2)c1` [Example 50, 2-(3,5-dimethylphenyl)-N-(4-(1-methyl-4-(trifluoromethyl)-1H-imidazol-2-yl)benzyl)-7H-purin-6-amine], the inhibition at 1 µM fell in the range of 50 to 75%.

For `COc1ccc(-c2nc(NCc3ccc(-c4nc(C(F)(F)F)cn4C)cc3)c3[nH]cnc3n2)cc1OC` [Example 51, 2-(3,4-dimethoxyphenyl)-N-(4-(1-methyl-4-(trifluoromethyl)-1H-imidazol-2-yl)benzyl)-7H-purin-6-amine], the inhibition at 1 µM is 50 to 75%.

Regarding `COc1cc(-c2nc(NCc3ccc(-c4nc(C(F)(F)F)cn4C)cc3)c3[nH]cnc3n2)ccc1F` [Example 52, 2-(4-fluoro-3-methoxyphenyl)-N-(4-(1-methyl-4-(trifluoromethyl)-1H-imidazol-2-yl)benzyl)-7H-purin-6-amine], the inhibition at 1 µM lay in the range of 50 to 75%.

Regarding `COc1ccc(-c2nc(NCc3ccc(-c4nc(C(F)(F)F)cn4C)cc3)c3[nH]cnc3n2)c(OC)c1` [Example 53, 2-(2,4-dimethoxyphenyl)-N-(4-(1-methyl-4-(trifluoromethyl)-1H-imidazol-2-yl)benzyl)-7H-purin-6-amine], the inhibition at 1 µM was 50 to 75%.

Consider `Cn1cc(C(F)(F)F)nc1-c1ccc(CNc2nc(-c3cccc(F)c3C(F)(F)F)nc3nc[nH]c23)cc1` [Example 54, 2-(3-fluoro-2-(trifluoromethyl)phenyl)-N-(4-(1-methyl-4-(trifluoromethyl)-1H-imidazol-2-yl)benzyl)-7H-purin-6-amine], for which the inhibition at 1 µM lay in the range of 50 to 75%.

As for `Cn1cc(C(F)(F)F)nc1-c1ccc(CNc2nc(-c3cccc(C(N)=O)c3)nc3nc[nH]c23)cc1` [Example 55, 3-(6-((4-(1-methyl-4-(trifluoromethyl)-1H-imidazol-2-yl)benzyl)amino)-7H-purin-2-yl)benzamide], the inhibition at 1 µM is 50 to 75%.

For the compound `CSc1ccc(-c2nc(NCc3ccc(-c4nc(C(F)(F)F)cn4C)cc3)c3[nH]cnc3n2)cc1` [Example 56, N-(4-(1-methyl-4-(trifluoromethyl)-1H-imidazol-2-yl)benzyl)-2-(4-(methylthio)phenyl)-7H-purin-6-amine], the inhibition at 1 µM fell in the range of 50 to 75%.

Take `Cn1cc(C(F)(F)F)nc1-c1ccc(CNc2nc(-c3ccc(C(F)(F)F)cc3)nc3nc[nH]c23)cc1` [Example 57, N-(4-(1-methyl-4-(trifluoromethyl)-1H-imidazol-2-yl)benzyl)-2-(4-(trifluoromethyl)phenyl)-7H-purin-6-amine]: the inhibition at 1 µM was 50 to 75%.

Still in this assay, the particulars now being: read-out: Biochemical assay % inhibition @10 μM.
For `COc1cccc(F)c1-c1nc(NCc2ccc(-c3nc(C(F)(F)F)cn3C)cc2)c2[nH]cnc2n1` [Example 30, 2-(2-fluoro-6-methoxyphenyl)-N-(4-(1-methyl-4-(trifluoromethyl)-1H-imidazol-2-yl)benzyl)-7H-purin-6-amine], the inhibition at 10 µM is greater than 75%.

With `COc1ccncc1-c1nc(NCc2ccc(-c3nc(C(F)(F)F)cn3C)cc2)c2[nH]cnc2n1` [Example 34, 2-(4-methoxypyridin-3-yl)-N-(4-(1-methyl-4-(trifluoromethyl)-1H-imidazol-2-yl)benzyl)-7H-purin-6-amine], the inhibition at 10 µM is greater than 75%.

On to `Cn1cc(C(F)(F)F)nc1-c1ccc(CNc2nc(N3CCOCC3)nc3nc[nH]c23)cc1` [Example 36, N-(4-(1-methyl-4-(trifluoromethyl)-1H-imidazol-2-yl)benzyl)-2-morpholino-7H-purin-6-amine], for which the inhibition at 10 µM lay within 50 to 75%.

For `COc1ncnc(C2CC2)c1-c1nc(NCc2ccc(-c3nc(C(F)(F)F)cn3C)cc2)c2ncn(C)c2n1` [Example 37, 2-(4-cyclopropyl-6-methoxypyrimidin-5-yl)-9-methyl-N-(4-(1-methyl-4-(trifluoromethyl)-1H-imidazol-2-yl)benzyl)-9H-purin-6-amine], the inhibition at 10 µM was greater than 75%.

The record behind these values is patent US20250163032A1, “NOVEL MOLECULES AS INHIBITORS OF DNA DAMAGE REPAIR PATHWAY” (VRise Therapeutics, Inc., priority 2023, published 2025).
